{"source": "patent US20240043396A1", "about": "“METHODS OF TREATING OCULAR FIBROTIC PATHOLOGIES” (Mayo Foundation for Medical Education and Research, priority 2021, published 2024)", "assay_type_in_all_cases": "cell-based, human", "key": {"ARPE-19 cells [1]": {"test_system": "ARPE-19 cells", "experiment": "Fibronectin deposition (immunofluorescence)", "settings": "ARPE-19, ±TGFβ 10 ng/mL, 10 μM fenoldopam, 4 days", "description": "Cell culture: The human RPE cell line ARPE-19 was purchased from ATCC and cultured in Dulbecco's Modified Eagle Medium/Nutrient Mixture F-12 (DMEM/F-12) supplemented with 2.50 mM L-Glutamine, 15 mM HEPES Buffer, 10% fetal bovine serum (FBS), and 1% Antibiotic-Antimycotic (Gibco), unless otherwise noted. Cells were maintained in a humidified 37° C., 5% CO2 incubator. All experiments were performed with cells at passage 3-6. Fibronectin Deposition: ARPE-19 cells were plated into 96-well plates (10,000 cells/well) and allowed to attach. Media was removed and replaced with the media specified in the “Cell Culture” section above, without FBS. Cells were treated for four days ±TGFβ (10 ng/mL), 10 μM fenoldopam, replacing media conditions every 24 hours for wells treated with fenoldopam. Cells were fixed with 10% neutral buffered formalin (Sigma-Aldrich) for 15 minutes. Cells were permeabilized with 0.25% Triton X-100 (Sigma-Aldrich) and blocked with 1% BSA for 1 hour. Cells were incubated with mouse monoclonal IgG3 primary antibodies against fibronectin (Santa Cruz Biotechnology), which were diluted 1:400 in 0.25% Triton X-100 (Sigma-Aldrich) with 1% BSA. Cells were incubated with primary antibodies either in 4° C. overnight or at room temperature for 2 hours. […] Immunofluorescence was measured using a Cytation 5 imaging reader (BioTek)."}, "ARPE-19 cells [2]": {"test_system": "ARPE-19 cells", "experiment": "Wound healing (wound migration) assay", "settings": "ARPE-19, ±TGFβ 10 ng/mL, 10 μM fenoldopam, 0-72 hours, media changed every 24 hours", "description": "Cell culture: The human RPE cell line ARPE-19 was purchased from ATCC and cultured in Dulbecco's Modified Eagle Medium/Nutrient Mixture F-12 (DMEM/F-12) supplemented with 2.50 mM L-Glutamine, 15 mM HEPES Buffer, 10% fetal bovine serum (FBS), and 1% Antibiotic-Antimycotic (Gibco), unless otherwise noted. Cells were maintained in a humidified 37° C., 5% CO2 incubator. All experiments were performed with cells at passage 3-6. Wound Healing Assay: ARPE-19 cells were plated confluent into a 12-well plate (300,000 cells/well) and allowed to attach. Cells were exposed to a single scratch made with a p200 pipette tip. Media was removed and replaced with the media specified in the “Cell Culture” section above, without FBS. Cells were treated ±TGFβ (10 ng/mL), 10 μM fenoldopam replacing media conditions every 24 hours for wells treated with fenoldopam. Cells were imaged after treatment for 0, 24, 48, and 72 hours. Cells were imaged with an inverted phase-contract microscope and wound area was measured using ImageJ software as previously described."}, "ARPE-19 cells [3]": {"test_system": "ARPE-19 cells", "experiment": "qPCR of profibrotic gene expression in ARPE-19 cells ±TGFβ", "description": "Cell culture: The human RPE cell line ARPE-19 was purchased from ATCC and cultured in Dulbecco's Modified Eagle Medium/Nutrient Mixture F-12 (DMEM/F-12) supplemented with 2.50 mM L-Glutamine, 15 mM HEPES Buffer, 10% fetal bovine serum (FBS), and 1% Antibiotic-Antimycotic (Gibco), unless otherwise noted. Cells were maintained in a humidified 37° C., 5% CO2 incubator. All experiments were performed with cells at passage 3-6. Chemicals and Reagents: dimethyl sulfoxide (DMSO) was purchased from Fisher Scientific and used to solubilize fenoldopam and SCH 39166. 2-mercaptoethanol was purchased from Bio-Rad Laboratories and added to RLT buffer prior to RNA isolation, as per Qiagen instructions. Fenoldopam and SCH 39166 were purchased from Cayman Chemical Company. TGFβ was purchased from InvivoGen. Fenoldopam, like a majority of […], has a characteristically short half-life. To take this into account we changed media daily to assess the efficacy of fenoldopam to inhibit fibrotic activation in vitro. RNA Isolation/qPCR Analysis: ARPE-19 cells were plated into 12 well plates (100,000 cells/well) and allowed to attach. Media was removed and replaced with the media specified in the “Cell Culture” section above, minus FBS. Cells were treated for 24 hours ±TGFβ (10 ng/mL), 10 μM fenoldopam, and 3 μM SCH 39166. RNA was isolated using the RNeasy Plus Mini Kit (Qiagen) and the manufacturer's protocol. Isolated RNA was converted to cDNA using the SuperScript VILO cDNA Synthesis Kit (Invitrogen) and the PTC-200 Peltier Thermal Cycler (MJ Research). Quantitative PCR (qPCR) was performed using FastStart Essential DNA Green Master (Roche) and LightCycler 96 (Roche)."}, "ARPE-19 cells [4]": {"test_system": "ARPE-19 cells", "experiment": "LIVE/DEAD assay", "settings": "ARPE-19, ±2% FBS, 10 μM fenoldopam, 4 days", "description": "(§1) Cell culture: The human RPE cell line ARPE-19 was purchased from ATCC and cultured in Dulbecco's Modified Eagle Medium/Nutrient Mixture F-12 (DMEM/F-12) supplemented with 2.50 mM L-Glutamine, 15 mM HEPES Buffer, 10% fetal bovine serum (FBS), and 1% Antibiotic-Antimycotic (Gibco), unless otherwise noted. Cells were maintained in a humidified 37° C., 5% CO2 incubator. All experiments were performed with cells at passage 3-6. Proliferation and Live/Dead Assays: ARPE-19 cells were plated into 96-well plates (1,000 cells/well) and allowed to attach. Media was removed and replaced with the media specified in the “Cell Culture” section above, with reduced FBS. Cells were treated for four days ±2% FBS, and 10 μM fenoldopam, replacing media conditions every 24 hours for wells treated with fenoldopam. After four days, CellTiter-Fluor™ (Promega) was added to each well according to the manufacturer and measured on a Flexstation 3 (Molecular Devices) plate reader for the proliferation assay. For the LIVE/DEAD™ assay, each component of the kit (Thermo Fisher Scientific) was added, then cells were incubated for 30 minutes. Fluorescent images were then taken using a Cytation 5 imaging reader (BioTek) and quantified for cytotoxicity/viability."}, "ARPE-19 cells [5]": {"test_system": "ARPE-19 cells", "experiment": "Proliferation assay (CellTiter-Fluor)", "settings": "ARPE-19, ±2% FBS, 10 μM fenoldopam, 4 days", "description": "as §1"}, "ARPE-19 cells [6]": {"test_system": "ARPE-19 cells", "experiment": "TGFβ-induced EMT in cultured RPE cells (morphology, qPCR of mesenchymal/profibrotic genes)", "settings": "ARPE-19, 5 ng/ml TGF-β1, 24 h, 0% FBS; 1 μM CTC-6 or 10 μM MS-9", "description": "Cell culture: ARPE-19 cells were purchased from ATCC (Manassas, VA, USA) were cultured in Eagle's minimal essential medium (EMEM) containing 10% fetal bovine serum (FBS) and antibiotic-antimycotic (Thermo Fisher Scientific) unless otherwise noted.\nqPCR analysis: ARPE-19 cells were plated on tissue culture dishes (Thermo Fisher Scientific, 60×15 mm) in EMEM containing 10% FBS and allowed to attach and grow for 24 h. Cells were stimulated with 5 ng/ml TGF-β1 and 10 μM MS-9 or 1 μM CTC-6 in EMEM containing 0% FBS for 24 h prior to RNA isolation using the RNeasy Plus Mini Kit (Qiagen, Hilden, Germany) according to the manufacturer's instructions. Isolated RNA (500 ng) was then used to synthesize cDNA using SuperScript VILO (Invitrogen, Carlsbad, CA, USA). Quantitative PCR (qPCR) was performed using FastStart Essential DNA Green Master and analyzed with LightCycler 96 (Roche, Basel, Switzerland). Data are expressed as a fold change by ΔΔCt relative to the level of the GAPDH housekeeping gene, and normalized to control.\nAs expected, TGFβ stimulated morphological changes consistent with EMT (FIG. 2A) and enhanced expression of ECM genes: COL1A1 and COL3A1, connective tissue growth factor (CTGF) and alpha-smooth muscle actin (ACTA2) (FIG. 2B)."}}, "data": [{"compound": "Oc1ccc(C2CNCCc3c2cc(O)c(O)c3Cl)cc1", "note": "(centres unmarked) [fenoldopam]", "values": [{"measurement": "antifibrotic response in fibronectin deposition assay", "setting": "ARPE-19 cells [1]", "value": "robust antifibrotic response"}, {"measurement": "antifibrotic response in wound migration assay", "setting": "ARPE-19 cells [2]", "value": "robust antifibrotic response"}, {"measurement": "expression of COL1A1, ACTA2, and FN1 compared to TGFβ exclusively", "setting": "ARPE-19 cells [3]; ARPE-19, TGFβ 10 ng/mL, 10 μM fenoldopam, 24 hours", "value": "significant decrease"}, {"measurement": "antifibrotic response in live/dead assay", "setting": "ARPE-19 cells [4]", "value": "robust antifibrotic response"}, {"measurement": "antifibrotic response in proliferation assay", "setting": "ARPE-19 cells [5]", "value": "robust antifibrotic response"}]}, {"compound": "CN1CCc2cc(Cl)c(O)cc2[C@H]2c3ccccc3CC[C@@H]21", "note": "[SCH 39166]", "values": [{"measurement": "effect of D5 antagonist alone in the presence of TGFβ on profibrotic gene expression", "setting": "ARPE-19 cells [3]; ARPE-19, TGFβ 10 ng/mL + 3 μM SCH 39166, 24 hours", "value": "no effect"}, {"measurement": "effect of D5 antagonist on the antifibrotic effects of fenoldopam (profibrotic gene expression)", "setting": "ARPE-19 cells [3]; ARPE-19, TGFβ 10 ng/mL + 10 μM fenoldopam + 3 μM SCH 39166, 24 hours", "value": "surmount the antifibrotic effects of fenoldopam"}]}, {"compound": "NCC1OC(c2ccncc2)Cc2c1ccc(O)c2O", "note": "(centres unmarked) [CTC-6]", "values": [{"measurement": "markers of EMT (morphology; COL1A1, COL3A1, CTGF, ACTA2 expression)", "setting": "ARPE-19 cells [6]", "value": "blocked markers of EMT"}]}]}
